Assay results taken from patent publication US12448655B2, “Antibiotic susceptibility of microorganisms and related methods and systems” (CALIFORNIA INSTITUTE OF TECHNOLOGY, priority 2017, dated 2025).

Assays:
E. coli isolates = assay: Quantification of DNA release following antibiotic exposure, filtration and ddPCR (Example 27); format: cell-based, Escherichia coli; design: dose or concentration left out as unconfirmed; details: 15 min exposure, 0.22 μm filtration, ddPCR
Experimental: Filtration experiments. Filtration experiments were performed using E. coli isolates exposed to 0.5 μg/mL ertapenem for 15 min. Immediately following exposure, cultures were passed through 0.22 μm, 1.5 mL cellulose acetate centrifuge tube filters (Corning Costar Spin-X, Corning, NY) by adding 50 μL of sample to the filter and centrifuging for 4 minutes at 1000 ref. DNA was extracted from both the feed and filtrate using QuickExtract DNA Extraction Solution (Lucigen, Middleton, WI, USA). Samples were diluted 10× into extraction buffer and extracted according to manufacturer instructions. The concentration of the single copy E. coli uidA gene was then quantified in the feed and filtrate extractions. The percentage of E. coli DNA in the filtrate was calculated as the filtrate concentration divided by the feed concentration. Droplet digital PCR (ddPCR) was performed using QX200 ddPCR Supermix for EvaGreen (BioRad). 10% of the final reaction volume was template. Published primers targeting the uidA gene in E. coli were used at a final concentration of 500 nM. Cycling conditions consisted of 5.0 min at 95° C., followed by 40 cycles of 95° C. for 30 sec, 60° C. for 30 sec, and 72° C. for 30 sec., with final dye stabilization steps of 4° C. for 5.0 min followed by 90° C. for 5.0 min.
To investigate the mechanism of pol-aAST, experiments were performed to separate free NAs from NAs contained within structurally intact cells or associated with cell debris. Susceptible and resistant clinical isolates were exposed to β-lactams for 15 min, then filtered through […] filters to remove cells from free NAs. NAs in the sample and eluate were then quantified using droplet digital PCR (ddPCR).

Neisseria gonorrhoeae [1] = assay: Two-step aAST with surfactant (CHAPS) only in the secondary exposure, qPCR CT ratio (Example 11); format: cell-based; details: 1 μg/mL ceftriaxone 15 min, then 10 mM CHAPS with DNaseI 5 min
Experimental: This example was performed using a two-step exposure in which the first step is exposure to a beta-lactam antibiotic and the second step is a 1:1 dilution into DNaseI treatment in the presence of a surfactant.
The inclusion of the surfactant enhances the accessible nucleic acids made available by short (15 minute) b-lactam exposure by adding a second incubation step with a surfactant. Differences in DNA accessibility between the unexposed and exposed tubes are enhanced. DNaseI is used to degrade the DNA made accessible by beta-lactam treatment and the surfactant.
FIG. 23 describes the layout of this experiment. An NG isolate is incubated with a beta-lactam antibiotic for 15 minutes, followed by a DNaseI digestion step in the presence of surfactant. At each time point, DNaseI will be added to degrade the accessible DNA, then the DNaseI will be inactivated simultaneously with the lysis of the remaining cells. The quantified nucleic acids represent those inaccessible from the DNaseI throughout the exposure protocol. • 1. Provide incubation media containing enhancer, accessibility, with and without an antibiotic for each isolate
The samples were mixed before transferring 25 μL of the sample to the prepared secondary incubation (enhancer) tubes. […]

Neisseria gonorrhoeae [2] = assay: Minimum inhibitory concentrations (MICs) of Neisseria gonorrhoeae clinical isolates; format: cell-based
Experimental: Isolates and agar-dilution MIC testing. Isolates were provided by the University of Washington Neisseria Reference Laboratory and the Centers for Disease Control (CDC) Antibiotic Resistance Isolate Bank Neisseria gonorrhoeae panel (SINuca-Table). MICs of the CDC AR Isolate Bank are reported by the CDC [10], and MIC of all other isolates were determined by agar dilution according to the Clinical and Laboratory Standards Institute (CLSI) guidelines.

Ng isolates = assay: nuc-aAST time-course without enhancing step (Example 32); format: cell-based, Neisseria gonorrhoeae; details: two PEN-S and two PEN-R Ng isolates; DNase I present; no enhancing step
Experimental: nuc-aAST time-course without enhancing step. Working cultures of Ng isolates were prepared as described in “Ng culture preparation.” Incubation at 37° C. was performed in 100 μL reaction volumes in PCR tube strips on a BioRad C1000 Thermal Cycler. Treated samples consisted of 77.5 μL MHB, 2.5 μL NaHCO3 (200 mM), 5 μL DNase I (2 U/μL), 5 μL PEN (20 μg/mL), and 10 μL working Ng isolate culture. PEN was replaced with NF—H2O in control samples. A 10 μL aliquot of each sample was extracted at 15, 30, 45, 60, 90, and 120 min and diluted 10× in QuickExtract DNA Extraction Solution (Lucigen, Middleton, WI, USA), then heated for 6 min at 65° C. followed by 4 min at 98° C. on a BioRad C1000 Thermal Cycler. All sample handling following antibiotic exposure was performed using a multichannel pipette; qPCR and calculation of % accessibility were performed as described above.
β-lactams should primarily affect peptidoglycan, and should not have a major impact on the outer membrane, which serves as a structural element in Gram-negative bacteria. Therefore, it is expected the primary mechanism behind any increase in accessibility to be cell lysis as a result of exposure to β-lactams, leading to release of genomic DNA to the extracellular environment containing DNase. […]

CO/N=C(\C(=O)N[C@@H]1C(=O)N2C(C(=O)O)=C(CSc3nc(=O)c(=O)[nH]n3C)CS[C@H]12)c1csc(N)n1 [CRO, ceftriaxone]
average percentage of DNA released from susceptible isolates (E. coli isolates): 6%
CT ratio (control/treated, qPCR) (Neisseria gonorrhoeae [1]; ceftriaxone-susceptible isolates ng_5, ng_17, ng_19): > 1.5
CT ratio (control/treated, qPCR) (Neisseria gonorrhoeae [1]; reduced-susceptibility isolate ng_30): < 1.5
Antibiotic MICs (Neisseria gonorrhoeae [2]; isolate ng_1): ≤0.008 µg/mL
Antibiotic MICs (Neisseria gonorrhoeae [2]; isolate ng_2): <0.008 µg/mL
Antibiotic MICs (Neisseria gonorrhoeae [2]; isolate ng_3): ≤0.008 µg/mL
Antibiotic MICs (Neisseria gonorrhoeae [2]; isolate ng_4): 0.030 µg/mL
Antibiotic MICs (Neisseria gonorrhoeae [2]; isolate ng_5): 0.015 µg/mL
Antibiotic MICs (Neisseria gonorrhoeae [2]; isolate ng_6): ≤0.008 µg/mL
Antibiotic MICs (Neisseria gonorrhoeae [2]; isolate ng_12): 0.015 µg/mL
Antibiotic MICs (Neisseria gonorrhoeae [2]; isolate ng_15): ≤0.008 µg/mL
Antibiotic MICs (Neisseria gonorrhoeae [2]; isolate ng_15, listed as ceftriaxone): < 0.008 µg/mL
Antibiotic MICs (Neisseria gonorrhoeae [2]; isolate ng_16): ≤0.008 µg/mL
Antibiotic MICs (Neisseria gonorrhoeae [2]; isolate ng_17): ≤0.008 µg/mL
Antibiotic MICs (Neisseria gonorrhoeae [2]; isolate ng_17, listed as ceftriaxone): ≤ 0.008 µg/mL
Antibiotic MICs (Neisseria gonorrhoeae [2]; isolate ng_18): 0.030 µg/mL
Antibiotic MICs (Neisseria gonorrhoeae [2]; isolate ng_19): 0.015 µg/mL
Antibiotic MICs (Neisseria gonorrhoeae [2]; isolate ng_20): ≤0.008 µg/mL
Antibiotic MICs (Neisseria gonorrhoeae [2]; isolate ng_30): 0.500 µg/mL
Antibiotic MICs (Neisseria gonorrhoeae [2]; isolate ng_30, listed as ceftriaxone): 0.05 µg/mL
Antibiotic MICs (Neisseria gonorrhoeae [2]; isolate ng_41): 0.125 µg/mL
Antibiotic MICs (Neisseria gonorrhoeae [2]; isolate ng_44): ≤0.008 µg/mL

penicillin
Antibiotic MICs (Neisseria gonorrhoeae [2]; isolate ng_1): 0.250 µg/mL
Antibiotic MICs (Neisseria gonorrhoeae [2]; isolate ng_2): 0.250 µg/mL
Antibiotic MICs (Neisseria gonorrhoeae [2]; isolate ng_3): 0.250 µg/mL
Antibiotic MICs (Neisseria gonorrhoeae [2]; isolate ng_4): 0.500 µg/mL
Antibiotic MICs (Neisseria gonorrhoeae [2]; isolate ng_5): 1.000 µg/mL
Antibiotic MICs (Neisseria gonorrhoeae [2]; isolate ng_6): 0.250 µg/mL
Antibiotic MICs (Neisseria gonorrhoeae [2]; isolate ng_12): 0.500 µg/mL
Antibiotic MICs (Neisseria gonorrhoeae [2]; isolate ng_15): 0.015 µg/mL
Antibiotic MICs (Neisseria gonorrhoeae [2]; isolate ng_16): 0.015 µg/mL
Antibiotic MICs (Neisseria gonorrhoeae [2]; isolate ng_17): 0.060 µg/mL
Antibiotic MICs (Neisseria gonorrhoeae [2]; isolate ng_18): 2.000 µg/mL
Antibiotic MICs (Neisseria gonorrhoeae [2]; isolate ng_19): 2.000 µg/mL
Antibiotic MICs (Neisseria gonorrhoeae [2]; isolate ng_20): 0.060 µg/mL
Antibiotic MICs (Neisseria gonorrhoeae [2]; isolate ng_30): 1.000 µg/mL
Antibiotic MICs (Neisseria gonorrhoeae [2]; isolate ng_41): 2.000 µg/mL
Antibiotic MICs (Neisseria gonorrhoeae [2]; isolate ng_44): 8.000 µg/mL
exposure time at which percentage accessibility differed significantly between susceptible and resistant isolates (Ng isolates): 90 min
